Where a name gives a salt, the structure may show the parent alone.
Test system: swine adipose tissue
Test: Inhibition of lipogenesis (lipid synthesis from glucose-U-14C) in swine adipose tissue slices
Format: cell-based
Details: Sus scrofa, 100 micrograms per milliliter, 37° C., 2 hours, glucose-U14C, insulin, 5% DMSO, triplicate, read-out: Percent Inhibition (of lipogenesis compared to control)
Source text: The manner in which they cause this effect is not known with certainty; it is believed that they interfere with the synthesis of fatty acids in the tissue. Their effectiveness for this purpose has been ascertained by immersing samples of swine adipose tissue in a liquid medium containing radioactive glucose and the test chemical for a period of time, then isolating the lipid from the treated tissue and determining the up-take of the radioactive carbon by means of scintillation counting techniques. These tests were conducted in swine adipose tissue because in swine the primary site of lipogenesis--i.e., fatty acid synthesis--appearsto be adipose tissue. […] 150 milligrams of slices of swine adipose tissue were incubated at 37° C. for 2 hours with shaking in 3 milliliters of Krebs-Ringer bicarbonate solution containing one-half the normal calcium ion concentration, 60 micromoles of glucose, 0.5 microCurie of glucose-U^14 C, and 300 microunits of insulin, and 5% dimethyl sulfoxide (DMSO). The test compounds were added as a solution or suspension in DMSO and were present at a concentration of 100 micrograms per milliliter of the incubation mixture. The incubation was terminated by addition of 0.25 milliliter of 1 N sulfuric acid. The resulting mixture was extracted with a total of 25 milliliters of chloroform:methanol (2:1, v/v). The extracts were washed according to Folch et al. (J. Biol. […] The tests were conducted in triplicate and were accompanied by control tests in which all ingredients,proportions and conditions were the same except that no test compound was included. From the data obtained were calculated the percent inhibition of lipid synthesis by the test compound in each case. The data obtained from the tests were set out in Table I, as the percent inhibition of lipogenesis compared to the results obtained in the control tests wherein only the test compound was omitted.

Row | Structure (SMILES) | inhibition at 100 µg/mL [%]
1 | CCOC(=O)C1CNc2cc(Cl)c(Cl)cc2O1 (stereo not drawn) [Compound 9, ethyl 6,7-dichloro-2,3-dihydro-2H-1,4-benzoxazine-2-carboxylate] | 56
2 | CCOC(=O)C1CNc2cc(C)ccc2O1 (stereo not drawn) [Compound 3, Ethyl 6-methyl-3,4-dihydro-2H-1,4-benzoxazine-2-carboxylate hydrochloride] | 18
3 | CCOC(=O)C1CNc2ccc([N+](=O)[O-])cc2O1 (stereo not drawn) [Compound 14, ethyl 7-nitro-3,4-dihydro-2H-1,4-benzoxazine-2-carboxylate] | 92
4 | CCOC(=O)C1CNc2cc(C(F)(F)F)ccc2O1 (stereo not drawn) [Compound 7, ethyl 6-(trifluoromethyl)-3,4-dihydro-2H-1,4-benzoxazine-2-carboxylate] | 31
5 | CCOC(=O)C1CNc2cc([N+](=O)[O-])ccc2O1 (stereo not drawn) [Compound 4, ethyl 6-nitro-3,4-dihydro-2H-1,4-benzoxazine-2-carboxylate] | 74
6 | CCOC(=O)C1CNc2cc([N+](=O)[O-])cc(Cl)c2O1 (stereo not drawn) [Compound 11, ethyl 8-chloro-6-nitro-3,4-dihydro-2H-1,4-benzoxazine-2-carboxylate] | 31
7 | CCOC(=O)C1CNc2cc(NS(C)(=O)=O)ccc2O1 (stereo not drawn) [Compound 6, ethyl 3,4-dihydro-6-((methylsulfonyl)amino)-2H-1,4-benzoxazine-2-carboxylate] | 76
8 | CCOC(=O)C1CNc2ccc(C)cc2O1 (stereo not drawn) [Compound 10, ethyl 7-methyl-3,4-dihydro-2H-1,4-benzoxazine-2-carboxylate] | 54
9 | CCOC(=O)C1CNc2cc(-c3ccccc3)ccc2O1 (stereo not drawn) [Compound 13, ethyl 6-phenyl-3,4-dihydro-2H-1,4-benzoxazine-2-carboxylate] | 34
10 | CCOC(=O)C1CNc2cc(N)ccc2O1 (stereo not drawn) [Compound 5, ethyl 6-amino-3,4-dihydro-2H-1,4-benzoxazine-2-carboxylate hydrochloride] | 43
11 | CCOC(=O)C1CNc2cc(OC)ccc2O1 (stereo not drawn) [Compound 8, ethyl 6-methoxy-2,3-dihydro-2H-1,4-benzoxazine-2-carboxylate] | 81
12 | CCOC(=O)C1CNc2cccc(Cl)c2O1 (stereo not drawn) [Compound 12, ethyl 8-chloro-3,4-dihydro-2H-1,4-benzoxazine-2-carboxylate] | 39
13 | CCOC(=O)C1CNc2ccccc2O1 (stereo not drawn) [Compound 1A, 3,4-dihydro-2H-1,4-benzoxazine-2-carboxylic acid ethyl ester hydrochloride] | 62
14 | CCOC(=O)C1CN(Cc2ccccc2)c2ccccc2O1 (stereo not drawn) [Compound 1, Ethyl 3,4-dihydro-4-benzyl-2H-1,4-benzoxazine-2-carboxylate] | 53
15 | CCOC(=O)C1CNc2cc(Cl)ccc2O1 (stereo not drawn) [Compound 2, Ethyl 6-chloro-3,4-dihydro-2H-1,4-benzoxazine-2-carboxylate] | 28
